System: SOCE in U937 (human monocytic lymphoma cell line)
Assay: Thapsigargin-induced SOCE in U937 cells, Indo-1
Format: cell-based
Method: We also tested P11 on the DG75 (Burkitt B lymphoma), U937 (monocytic lymphoma), and MDA-MB231 (breast carcinoma) cell lines. […] Thus, in several cell lines, full inhibition of the SOCE was already obtained at a concentration of 100 nM (Figure 3B).
[Ca^2+]cyt was recorded by a fluorimetric ratio technique as previously described. Leukocytes were spun and resuspended at a density of 10^6 cells/mL in Hepes buffered saline (HBS; 135 mM NaCl, 5.9 mM KCl, 1.2 mM MgCl2, 11.6 mM Hepes, 11.5 mM glucose adjusted to pH 7.3 with NaOH). Due to the presence of 0.002% Ca^2+ in the NaCl, this HBS medium contained 0.1 mM of Ca^2+. Then, cells were incubated in the dark with 4 μM Indo-1-AM for one hour at room temperature under slow agitation. […] Ultraviolet light of 360 nm was used for excitation of Indo-1, and emissions at 405 and 480 nm were recorded. […] The maximum Indo-1 fluorescence (Rmax) was obtained by adding 1 µM ionomycin to the cell suspension in the presence of 10 mM extracellular CaCl2. Minimum fluorescence was determined following the depletion of external Ca^2+ with 5 mM EGTA.
To visualize the SOCE, cells were placed into the quartz cuvette and 0.5 EGTA was added just before the beginning of the recordings. […] In the dose-response experiments, different concentrations of 2-APB and its analogs were added 30 s prior to Ca^2+ readdition.

With “2-(dibiphenyl-4-ylboryloxy)ethanamine [P11]” the Ki was 40 ± 5 nM.
